Results published in patent US9884868B2, “TGF-beta inhibitors” (Rigel Pharmaceuticals, Inc., priority 2015, dated 2018).

Target: HIS-TGF-βR1 T204D (Homo sapiens (Human), UniProt P36897, T204D)
Assay: HTRF probe displacement assay with HIS-TGF-βR1 T204D
Settings: read-out: TGFbr1 IC50; HTRF probe displacement, 1 nM HIS-TGF-βR1 T204D, 1 hour at room temperature

Chain of HIS-TGF-βR1 T204D (P36897 34-503 T204D): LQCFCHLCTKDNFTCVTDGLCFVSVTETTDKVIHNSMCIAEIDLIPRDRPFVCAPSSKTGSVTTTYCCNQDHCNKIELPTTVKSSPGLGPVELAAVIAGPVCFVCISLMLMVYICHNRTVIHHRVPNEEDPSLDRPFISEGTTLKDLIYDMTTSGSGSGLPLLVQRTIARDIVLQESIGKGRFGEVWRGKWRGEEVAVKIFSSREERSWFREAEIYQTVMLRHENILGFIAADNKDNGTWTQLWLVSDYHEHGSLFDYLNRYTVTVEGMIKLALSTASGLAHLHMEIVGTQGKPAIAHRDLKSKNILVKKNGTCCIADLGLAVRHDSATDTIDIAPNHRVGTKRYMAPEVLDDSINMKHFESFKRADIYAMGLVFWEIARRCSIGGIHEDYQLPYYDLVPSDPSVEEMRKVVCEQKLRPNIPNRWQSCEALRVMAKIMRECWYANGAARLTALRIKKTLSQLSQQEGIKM

Compound	IC50 [nM]
CC1(n2cnc(-c3ccc(F)c(Cl)c3)c2-c2ccc3ncc(C#N)n3n2)CC1 [41′, 6-(4-(3-chloro-4-fluorophenyl)-1-(1-methylcyclopropyl)-1H-imidazol-5-yl)imidazo[1,2-b]pyridazine-3-carbonitrile]	0.9
N#Cc1cnc2ccc(-c3c(-c4ccc(F)c(Cl)c4)ncn3C[C@@H]3CCCO3)nn12 [42′, (S)-6-(4-(3-chloro-4-fluorophenyl)-1-((tetrahydrofuran-2-yl)methyl)-1H-imidazol-5-yl)imidazo[1,2-b]pyridazine-3-carbonitrile]	1.8
CC1(n2cnc(-c3ccc(F)c(Cl)c3)c2-c2ccc3ncc(C#N)n3n2)COC1 [43′, 6-(4-(3-chloro-4-fluorophenyl)-1-(3-methyloxetan-3-yl)-1H-imidazol-5-yl)imidazo[1,2-b]pyridazine-3-carbonitrile]	2.7
N#Cc1cnc2ccc(-c3c(-c4ccc(F)c(Cl)c4)ncn3CCCCl)nn12 [44′, 6-(4-(3-chloro-4-fluorophenyl)-1-(3-chloropropyl)-1H-imidazol-5-yl)imidazo[1,2-b]pyridazine-3-carbonitrile]	1.2
CC1(Cn2cnc(-c3ccc(F)c(Cl)c3)c2-c2ccc3ncc(C#N)n3n2)COC1 [45′, 6-(4-(3-chloro-4-fluorophenyl)-1-((3-methyloxetan-3-yl)methyl)-1H-imidazol-5-yl)imidazo[1,2-b]pyridazine-3-carbonitrile]	2.3
N#Cc1cnc2ccc(-c3c(-c4ccc(F)c(Cl)c4)ncn3C3CCOC3)nn12 (centres unmarked) [46′, 6-(4-(3-chloro-4-fluorophenyl)-1-(tetrahydrofuran-3-yl)-1H-imidazol-5-yl)imidazo[1,2-b]pyridazine-3-carbonitrile]	1.5
CC(C)CCn1cnc(-c2ccc(F)c(Cl)c2)c1-c1ccc2ncc(C#N)n2n1 [49′, 6-(4-(3-chloro-4-fluorophenyl)-1-isopentyl-1H-imidazol-5-yl)imidazo[1,2-b]pyridazine-3-carbonitrile]	1.4
Cn1cnc(-c2ccc(F)c(Cl)c2)c1-c1ccc2ncc(C#N)n2n1 [50′, 6-(4-(3-chloro-4-fluorophenyl)-1-methyl-1H-imidazol-5-yl)imidazo[1,2-b]pyridazine-3-carbonitrile]	2.3
CC(C)n1cnc(-c2ccc(F)c(Cl)c2)c1-c1ccc2ncc(C#N)n2n1 [51′, 6-(4-(3-chloro-4-fluorophenyl)-1-isopropyl-1H-imidazol-5-yl)imidazo[1,2-b]pyridazine-3-carbonitrile]	0.6
CCn1cnc(-c2ccc(F)c(Cl)c2)c1-c1ccc2ncc(C#N)n2n1 [52′, 6-(4-(3-chloro-4-fluorophenyl)-1-ethyl-1H-imidazol-5-yl)imidazo[1,2-b]pyridazine-3-carbonitrile]	0.9
N#Cc1cnc2ccc(-c3c(-c4ccc(F)c(Cl)c4)ncn3C3CC(F)(F)C3)nn12 [53′, 6-(4-(3-chloro-4-fluorophenyl)-1-(3,3-difluorocyclobutyl)-1H-imidazol-5-yl)imidazo[1,2-b]pyridazine-3-carbonitrile]	2.1
N#Cc1cnc2ccc(-c3c(-c4ccc(F)c(Cl)c4)ncn3CCCF)nn12 [54′, 6-(4-(3-chloro-4-fluorophenyl)-1-(3-fluoropropyl)-1H-imidazol-5-yl)imidazo[1,2-b]pyridazine-3-carbonitrile]	0.8
CC(F)(F)Cn1cnc(-c2ccc(F)c(Cl)c2)c1-c1ccc2ncc(C#N)n2n1 [56′, 6-(4-(3-chloro-4-fluorophenyl)-1-(2,2-difluoropropyl)-1H-imidazol-5-yl)imidazo[1,2-b]pyridazine-3-carbonitrile]	0.8
CC(C)(F)Cn1cnc(-c2ccc(F)c(Cl)c2)c1-c1ccc2ncc(C#N)n2n1 [57′, 6-(4-(3-chloro-4-fluorophenyl)-1-(2-fluoro-2-methylpropyl)-1H-imidazol-5-yl)imidazo[1,2-b]pyridazine-3-carbonitrile]	1.5
N#Cc1cnc2ccc(-c3c(-c4ccc(F)c(Cl)c4)ncn3C3CCC3)nn12 [58′, 6-(4-(3-chloro-4-fluorophenyl)-1-cyclobutyl-1H-imidazol-5-yl)imidazo[1,2-b]pyridazine-3-carbonitrile]	0.8
N#Cc1cnc2ccc(-c3c(-c4ccc(F)c(Cl)c4)ncn3C34CC(C3)C4)nn12 [59′, 6-(1-(bicyclo[1.1.1]pentan-1-yl)-4-(3-chloro-4-fluorophenyl)-1H-imidazol-5-yl)imidazo[1,2-b]pyridazine-3-carbonitrile]	1.1
N#Cc1cnc2ccc(-c3c(-c4ccc(F)c(Cl)c4)ncn3CCCl)nn12 [60′, 6-(4-(3-chloro-4-fluorophenyl)-1-(2-chloroethyl)-1H-imidazol-5-yl)imidazo[1,2-b]pyridazine-3-carbonitrile]	0.9
N#Cc1cnc2ccc(-c3c(-c4ccc(F)c(Cl)c4)ncn3CCC3CC3)nn12 [61′, 6-(4-(3-chloro-4-fluorophenyl)-1-(2-cyclopropylethyl)-1H-imidazol-5-yl)imidazo[1,2-b]pyridazine-3-carbonitrile]	0.8
CC1(Cn2cnc(-c3ccc(F)c(Cl)c3)c2-c2ccc3ncc(C#N)n3n2)CC1 [62′, 6-(4-(3-chloro-4-fluorophenyl)-1-((1-methylcyclopropyl)methyl)-1H-imidazol-5-yl)imidazo[1,2-b]pyridazine-3-carbonitrile]	1.6

Compound	IC50 [nM]
N#Cc1cnc2ccc(-c3c(-c4ccc(F)c(Cl)c4)ncn3[C@@H]3CCC(F)(F)C3)nn12 [63′, (R)-6-(4-(3-chloro-4-fluorophenyl)-1-(3,3-difluorocyclopentyl)-1H-imidazol-5-yl)imidazo[1,2-b]pyridazine-3-carbonitrile]	0.9
N#Cc1cnc2ccc(-c3c(-c4ccc(F)c(Cl)c4)ncn3[C@H]3CCC(F)(F)C3)nn12 [64′, (S)-6-(4-(3-chloro-4-fluorophenyl)-1-(3,3-difluorocyclopentyl)-1H-imidazol-5-yl)imidazo[1,2-b]pyridazine-3-carbonitrile]	5.1
N#Cc1cnc2ccc(-c3c(-c4ccc(F)cc4)ncn3C3CC(F)(F)C3)cn12 [66′, 6-(1-(3,3-difluorocyclobutyl)-4-(4-fluorophenyl)-1H-imidazol-5-yl)imidazo[1,2-a]pyridine-3-carbonitrile]	418
CCC(C)n1cnc(-c2ccc(F)cc2)c1-c1ccc2ncc(C#N)n2c1 (centres unmarked) [67′, 6-(1-(sec-butyl)-4-(4-fluorophenyl)-1H-imidazol-5-yl)imidazo[1,2-a]pyridine-3-carbonitrile]	55.8
C[C@@H](O)Cn1cnc(-c2ccc(F)cc2)c1-c1ccc2ncc(C#N)n2c1 [68′, (R)-6-(4-(4-fluorophenyl)-1-(2-hydroxypropyl)-1H-imidazol-5-yl)imidazo[1,2-a]pyridine-3-carbonitrile]	301
CC(O)CCn1cnc(-c2ccc(F)cc2)c1-c1ccc2ncc(C#N)n2c1 (centres unmarked) [69′, 6-(4-(4-fluorophenyl)-1-(3-hydroxybutyl)-1H-imidazol-5-yl)imidazo[1,2-a]pyridine-3-carbonitrile]	151
CCC(O)Cn1cnc(-c2ccc(F)cc2)c1-c1ccc2ncc(C#N)n2c1 (centres unmarked) [70′, 6-(4-(4-fluorophenyl)-1-(2-hydroxybutyl)-1H-imidazol-5-yl)imidazo[1,2-a]pyridine-3-carbonitrile]	123
N#Cc1cnc2ccc(-c3c(-c4ccc(F)cc4)ncn3C[C@@H](O)CO)cn12 [71′, (R)-6-(1-(2,3-dihydroxypropyl)-4-(4-fluorophenyl)-1H-imidazol-5-yl)imidazo[1,2-a]pyridine-3-carbonitrile]	170
N#Cc1cnc2ccc(-c3c(-c4ccc(F)cc4)ncn3CC3CCC3)cn12 [72′, 6-(1-(cyclobutylmethyl)-4-(4-fluorophenyl)-1H-imidazol-5-yl)imidazo[1,2-a]pyridine-3-carbonitrile]	67.8
CCn1cnc(-c2ccc(F)cc2)c1-c1ccc2ncc(C#N)n2c1 [73′, 6-(1-ethyl-4-(4-fluorophenyl)-1H-imidazol-5-yl)imidazo[1,2-a]pyridine-3-carbonitrile]	36.2
CCC(CC)n1cnc(-c2ccc(F)cc2)c1-c1ccc2ncc(C#N)n2c1 [74′, 6-(4-(4-fluorophenyl)-1-(pentan-3-yl)-1H-imidazol-5-yl)imidazo[1,2-c]pyridine-3-carbonitrile]	152
N#Cc1cnc2ccc(-c3c(-c4ccc(F)cc4)ncn3CCCO)cn12 [75′, 6-(4-(4-fluorophenyl)-1-(3-hydroxypropyl)-1H-imidazol-5-yl)imidazo[1,2-a]pyridine-3-carbonitrile]	200
CC(C)C(C)n1cnc(-c2ccc(F)cc2)c1-c1ccc2ncc(C#N)n2c1 (centres unmarked) [76′, 6-(4-(4-fluorophenyl)-1-(3-methylbutan-2-yl)-1H-imidazol-5-yl)imidazo[1,2-a]pyridine-3-carbonitrile]	999
N#Cc1cnc2ccc(-c3c(-c4ccc(F)cc4)ncn3C3CC3)cn12 [77′, 6-(1-cyclopropyl-4-(4-fluorophenyl)-1H-imidazol-5-yl)imidazo[1,2-a]pyridine-3-carbonitrile]	19.8
N#Cc1cnc2ccc(-c3c(-c4ccc(F)cc4)ncn3C3COC3)cn12 [78′, 6-(4-(4-fluorophenyl)-1-(oxetan-3-yl)-1H-imidazol-5-yl)imidazo[1,2-a]pyridine-3-carbonitrile]	568
CC(C)n1cnc(-c2ccc(F)cc2)c1-c1ccc2ncc(C#N)n2c1 [79′, 6-(4-(4-fluorophenyl)-1-isopropyl-1H-imidazol-5-yl)imidazo[1,2-a]pyridine-3-carbonitrile]	55.3
CC(CCO)n1cnc(-c2ccc(F)cc2)c1-c1ccc2ncc(C#N)n2c1 (centres unmarked) [80′, 6-(4-(4-fluorophenyl)-1-(4-hydroxybutan-2-yl)-1H-imidazol-5-yl)imidazo[1,2-a]pyridine-3-carbonitrile]	31
CC(CO)n1cnc(-c2ccc(F)cc2)c1-c1ccc2ncc(C#N)n2c1 (centres unmarked) [81′, 6-(4-(4-fluorophenyl)-1-(1-hydroxypropan-2-yl)-1H-imidazol-5-yl)imidazo[1,2-a]pyridine-3-carbonitrile]	88.5
CC(C)Cn1cnc(-c2ccc(F)cc2)c1-c1ccc2ncc(C#N)n2c1 [82′, 6-(4-(4-fluorophenyl)-1-isobutyl-1H-imidazol-5-yl)imidazo[1,2-a]pyridine-3-carbonitrile]	71.6
